This passage reports Mean ± SD / Km(mM^-1) results from article PMC5902575, “Characterization of AiiK, an AHL lactonase, from Kurthia huakui LAM0618^T and its application in quorum quenching on Pseudomonas aeruginosa PAO1” (Scientific Reports, 2018).

The experiment addresses T1, AiiK (Kurthia huakuii, UniProt Z9B3F0ZFT1).
T1 construct: primer-encoded N-terminus MCQNKKLY
The experiment is described as follows: HPLC of remaining AHL at […] nm, Michaelis-Menten fit. The settings on record: 10 mM PBS pH 7.4, 25 °C, 10 min, 4 μg/mL enzyme, 25–150 μM substrate; unit given as mM^−1 in the source; unit of the source corrected. Format: biochemical.

T1 sequence (Z9B3F0ZFT1 1-278 limits assumed): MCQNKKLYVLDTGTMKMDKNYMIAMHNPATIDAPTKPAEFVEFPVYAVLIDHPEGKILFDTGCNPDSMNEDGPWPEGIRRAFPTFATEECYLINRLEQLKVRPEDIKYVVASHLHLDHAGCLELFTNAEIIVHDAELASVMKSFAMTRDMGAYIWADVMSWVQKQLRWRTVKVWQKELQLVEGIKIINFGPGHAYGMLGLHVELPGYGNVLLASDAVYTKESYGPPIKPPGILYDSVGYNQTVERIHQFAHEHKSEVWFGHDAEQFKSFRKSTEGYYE

For `CCCC(=O)CC(=O)N[C@H]1CCOC1=O` [3-Oxo-C6-HSL], the Mean ± SD / Km(mM^-1) came out at 0.066 ± 0.02 mM.

Regarding `CCCCCC(=O)N[C@H]1CCOC1=O` [C6-HSL], the Mean ± SD / Km(mM^-1) worked out at 0.204 ± 0.031 mM.

Compound `CCCCCCCCCC(=O)N[C@H]1CCOC1=O` [C10-HSL] displayed a Mean ± SD / Km(mM^-1) of 0.315 ± 0.065 mM.

Consider `CCCCCCCCCCCCCC(=O)N[C@H]1CCOC1=O` [C14-HSL], for which the Mean ± SD / Km(mM^-1) was 0.036 ± 0.004 mM.
